Experimental data as given in patent US20080145313A1, “Compositions and Methods for the Treatment and Prevention of Neoplastic Disorders” (Genesis Research & Development Corporation Limited, priority 2006, published 2008).

What follows are substances tested on A549 cells (assay: Growth inhibition of siRNA-transfected A549 cells, SYBR Green I DNA content). Conditions: 10 nM siRNA; DNA content 96 hours after transfection.
Type: cell-based, human
Method: A549 cells (human lung cancer cell line; ATCC No. CCL-185), SK-MeI-5 cells (human melanoma cell line; ATCC No. HTB-70), MCF-7 cells (human adenocarcinoma cell line; ATCC No. HTB-22), HCT-116 cells (colorectal carcinoma; ATCC CCL-247) and HCT-116 p53 null cells (derived from ATCC No. CCL-247; Bunz et al., Science 282:1497-1501, 1998) were cultured in RPMI 1640 medium with 10% v/v heat-inactivated fetal calf serum (FCS). Cells were seeded at a density of 5×10^4 cells/cm^2 in multi-well tissue culture plates. Sequences of Stealth™ siRNA duplexes (Invitrogen) targeting human ribonucleotide reductase subunit 1 (SEQ ID NO: 22) and subunit 2 (SEQ ID NO; 38) are given in SEQ ID NO: 4830-4832 (DNA), and SEQ ID NO: 5136-5138 (RNA) for RRM1, and SEQ ID NO: 5306-5308 (DNA), and SEQ ID NO: 5303-5305 (RNA) for RRM2. siRNAs were transfected at different concentrations into cells using Lipofectamine™ RNAiMAX transfection reagent (Invitrogen). Non-specific siRNA (SEQ ID NO: 4804 and 4805 (DNA), and SEQ ID NO: 5301 and 5302 (RNA)) were used as controls. The cellular DNA content was measured using a SYBR Green I-based fluorometric assay at 24, 48, 72 and 96 hours after transfection (120 hours for the MCF-7 cells), as follows. At the indicated time points following reverse transfection, cells were harvested and frozen at −80° C. overnight. Cells were thawed and cell lysis buffer (phosphate-buffered saline (PBS) containing 1% Triton X-100, pH 7) and SYBR Green I (1:10^5 V/V; Invitrogen) was added to the wells and incubated overnight in the dark at 4° C.
The following day, cell lysates were mixed thoroughly, and DNA fluorescence was measured with a Wallac Victor^2 plate reader (Turku, Finland) set at an excitation frequency of 485 nm and measuring emission at 535 nm.
To determine the duration of the knock-down effect of RRM1-targeting siRNA, A549 cells were reverse transfected with 1 or 10 nM RRM1-3 (SEQ ID NO: 4832 (DNA, and SEQ ID NO: 5138 (RNA)) or control siRNA (SEQ ID NO: 4804 (DNA), and SEQ ID NO: 5301 (RNA)), and growth followed over time. Growth inhibition was measured daily as described above for up to ten days. RRM1-3-mediated RRM1 silencing inhibited growth for at least 10 days post-transfection at both 1 and 10 nM (FIG. 11).
siRNA-mediated inhibition of cancer cell growth was determined in A549 cells as follows. A549 cells (human lung cancer cell line; ATCC No. CCL-185) were cultured in RPMI 1640 medium with 10% v/v heat-inactivated fetal calf serum. Cells were seeded at a density of 5×10^3 cells/cm^2 in multi-well tissue culture plates. Stealth™ siRNA duplexes (Invitrogen) targeting genes involved in cancer energy and metabolism pathways and listed in Table 9, were transfected at 10 nM into cells using Lipofectamine™ RNAiMAX transfection reagent (Invitrogen). Non-specific siRNA (SEQ ID NO: 4804 and 4805 (DNA), and SEQ ID NO: 5301 and 5302 (RNA)) were used as controls. The cellular DNA content was measured using a SYBR Green I-based fluorometric assay at 96 hours after transfection. The cells were harvested and frozen at −80° C. overnight. Cells were thawed and cell lysis buffer (phosphate-buffered saline (PBS) containing 1% Triton X-100, pH 7) and SYBR Green I (1:10^5 v/v; Invitrogen) was added to the wells and incubated overnight in the dark at 4° C. The following day, cell lysates were mixed thoroughly, and DNA fluorescence was measured with a Wallac Victor^2 plate reader (Turku, Finland) set at an excitation frequency of 485 nm and measuring emission at 535 nm.
Three different siRNAs were tested for each target gene. The average fluorescence units from three replicate wells, representing the amount of DNA per well, were used to determine the effect on growth inhibition. The results are given in Table 10 (energy and metabolism gene targets) and Table 11 (transporter gene targets).
siRNA-mediated RNAi was also determined on a panel of different cell lines. […]

Substance | Growth Inhibition in A549 cells
SEQ ID NO: 4862: siRNA targeting SLC25A5 (ANT2) (chain 1 AGAACATTGGACCATGCACCCTTGA; chain 2 AGAACAUUGGACCAUGCACCCUUGA; Both strands are one antisense strand in DNA/RNA notation, chemistry not given here, further chemistry not given here; one strand in two spellings) | − (no growth inhibition with any siRNA)
SEQ ID NO: 4875: siRNA targeting CTPS (chain 1 AATAACACACACTTGAGGTTCCAGG; chain 2 AAUAACACACACUUGAGGUUCCAGG; Both strands are one antisense strand in DNA/RNA notation, chemistry not given here, further chemistry not given here; one strand in two spellings) | ++ (inhibits by at least 75%)
SEQ ID NO: 4994: siRNA targeting TK2 (chain 1 CCTGAGACTTGTTACCAGAGGTTAA; chain 2 CCUGAGACUUGUUACCAGAGGUUAA; chemistry not given here; one strand in two spellings) | − (no growth inhibition with any siRNA)
SEQ ID NO: 4815: siRNA targeting LDHA/5 (chain 1 ATTAAGACGGCTTTCTCCCTCTTGC; chain 2 AUUAAGACGGCUUUCUCCCUCUUGC; chemistry not given here; one strand in two spellings) | − (no growth inhibition with any siRNA)
SEQ ID NO: 4840: siRNA targeting AK1 (chain 1 TAGCCATCAATCAGGAAGCCTTTGG; chain 2 UAGCCAUCAAUCAGGAAGCCUUUGG; chemistry not given here; one strand in two spellings) | + (inhibits by at least 50%)
SEQ ID NO: 4856: siRNA targeting FASN (chain 1 CTTCGATGTATTCAAATGACTCAGG; chain 2 CUUCGAUGUAUUCAAAUGACUCAGG; Both strands are one antisense strand in DNA/RNA notation, chemistry not given here, further chemistry not given here; one strand in two spellings) | − (no growth inhibition with any siRNA)
SEQ ID NO: 4990: siRNA targeting TK1 (chain 1 GACATCATGGAGTTCTGCGAGGCCA; chain 2 GACAUCAUGGAGUUCUGCGAGGCCA; chemistry not given here; one strand in two spellings) | − (no growth inhibition with any siRNA)
SEQ ID NO: 4853: siRNA targeting ATP5B (chain 1 TATACCAGCGCTACCTTAGAGGTGG; chain 2 UAUACCAGCGCUACCUUAGAGGUGG; Both strands are one antisense strand in DNA/RNA notation, chemistry not given here, further chemistry not given here; one strand in two spellings) | + (inhibits by at least 50%)
SEQ ID NO: 4810: siRNA targeting H6PD (G6PDH) (chain 1 TCTTGAACAAGATCCGAGCGTAGCC; chain 2 UCUUGAACAAGAUCCGAGCGUAGCC; chemistry not given here; one strand in two spellings) | − (no growth inhibition with any siRNA)
SEQ ID NO: 4986: siRNA targeting DCK (chain 1 ACGATCTGTGTATAGTGACAGGTAT; chain 2 ACGAUCUGUGUAUAGUGACAGGUAU; Both strands are one antisense strand in DNA/RNA notation, chemistry not given here, further chemistry not given here; one strand in two spellings) | − (no growth inhibition with any siRNA)
SEQ ID NO: 4993: siRNA targeting TK2 (chain 1 GGAAGACGACATGCCTGGAATTCTT; chain 2 GGAAGACGACAUGCCUGGAAUUCUU; chemistry not given here; one strand in two spellings) | − (no growth inhibition with any siRNA)
SEQ ID NO: 4876: siRNA targeting CTPS (chain 1 ATAAAGGGCATGCTTTCTATGTCCC; chain 2 AUAAAGGGCAUGCUUUCUAUGUCCC; Both strands are one antisense strand in DNA/RNA notation, chemistry not given here, further chemistry not given here; one strand in two spellings) | − (no growth inhibition with any siRNA)
SEQ ID NO: 5001: siRNA targeting DPYD (chain 1 GCTAGCATTATGTGCAGTTACAATA; chain 2 GCUAGCAUUAUGUGCAGUUACAAUA; chemistry not given here; one strand in two spellings) | − (no growth inhibition with any siRNA)
SEQ ID NO: 4826: siRNA targeting CPS1 (chain 1 TTCCCAAGCATGGTACCCTTATCCC; chain 2 UUCCCAAGCAUGGUACCCUUAUCCC; chemistry not given here; one strand in two spellings) | − (no growth inhibition with any siRNA)
SEQ ID NO: 4864: siRNA targeting SLC25A6 (ANT3) (chain 1 AAATCCAGCGGGTACACGAAGCAGA; chain 2 AAAUCCAGCGGGUACACGAAGCAGA; Both strands are one antisense strand in DNA/RNA notation, chemistry not given here, further chemistry not given here; one strand in two spellings) | − (no growth inhibition with any siRNA)

Same assay, conditions: A549 cells, 10 nM siRNA, DNA content 96 hours after transfection, transporter gene targets

Substance | Growth Inhibition in A549 cells by 10 nM siRNA
SEQ ID NO: 4942: siRNA targeting ATP2B2 (PMCA2) (chain 1 TTCCAGGTCGGTGTCATCAATGAGG; chain 2 UUCCAGGUCGGUGUCAUCAAUGAGG; chemistry not given here; one strand in two spellings) | − (no growth inhibition)
SEQ ID NO: 4949: siRNA targeting ATP6V1A (chain 1 TATAAATAGAGGCTTCTCTAGCAGC; chain 2 UAUAAAUAGAGGCUUCUCUAGCAGC; chemistry not given here; one strand in two spellings) | − (no growth inhibition)
SEQ ID NO: 4941: siRNA targeting ATP2B2 (PMCA2) (chain 1 ATCTGTGTCTGGATCCGATTCAGGC; chain 2 AUCUGUGUCUGGAUCCGAUUCAGGC; chemistry not given here; one strand in two spellings) | + (inhibits by at least 50%)
SEQ ID NO: 4940: siRNA targeting ATP2B2 (PMCA2) (chain 1 TTCTTGTGCATGCTGGCCTTCTTCC; chain 2 UUCUUGUGCAUGCUGGCCUUCUUCC; chemistry not given here; one strand in two spellings) | ++ (inhibits by at least 75%)
